From a melting point compilation (Tetko et al.; mined from patent text by program, amines drawn as free bases though some values may be those of a salt) come the findings set out here.

Some results are limits rather than exact numbers.

In turn, `Cn1c(-c2cccnc2)c(CCCCCC(=O)O)c2ccccc21` displayed a melting point of 117 to 120 °C.
Under `CC1=C(OC(=O)C(C)(C)C)C2=C(O)N(I)CN(OC(=O)C(C)(C)C)C2=N1` stands 155 °C; under `c1ccc(Nc2c(-c3ccccc3)sc3ccccc23)cc1`, 142 to 143 °C; under `Clc1ccc2c(c1)C(c1ccsc1)=NCC1COCCN21` (configuration not stated), 207 to 212 °C.
`CCCCCCCCC(O)C(=O)NCCSSCCNC(=O)C(O)CCCCCCCC` (configuration not stated): the melting point lay in the range of 180 to 183 °C.
In turn, `COC1(c2cc(F)cc(OCc3ccc(C(=O)O)cc3)c2)CCOCC1` had a melting point of 184 to 186 °C.
Under `O=C(O)COc1cccc(COC(=O)N(c2ccccc2)c2ccccc2)c1Cl` stands 182 to 183 °C; under `CCc1cccc2c3c([nH]c12)C1(CC(=O)O)CC1CC3` (configuration not stated), 154 to 156 °C.
The result for `Cc1cc2nc(Cl)nc(Cl)c2s1` reads 152 to 153 °C; that for `COc1ccc(NC(=O)c2ccc(Br)cc2)cc1N1CCN(C(=O)OC(C)(C)C)CC1`, 156 to 158 °C.
Under `Oc1nc2cc(F)ccc2n2cnnc12` stands over 300 °C; under `OCc1cn(Cc2ccc(OCc3ccccc3)cc2)nc1OCc1ccc(OCc2ccccc2)cc1`, 128 to 129 °C; under `CCCn1cc(Cc2ccc(C(=O)NS(=O)(=O)c3ccccc3C)cc2OC)c2cc(CCNC(=O)N3CCOCC3)ccc21`, 117 to 123 °C.
Molecule `CN1CCC(=C2c3ccccc3-c3cocc3-c3ccccc32)CC1` displayed a melting point of 147 to 148 °C.
As to `Cc1cc2c3c(cc(C)c2[nH]c1=O)C(C)C(C(C)N)O3` (configuration not stated), the melting point lay within 195 to 207 °C.
The result for `O=C(O)CCCc1cc2cc(Cl)ccc2n1S(=O)(=O)c1ccc2c(c1)CCO2` reads 174 to 179 °C.
The result for `CCN(c1nc(C)cc(C(=O)N2CCN(C)CC2)n1)c1ccc(C(C)C)cc1Br` reads 81 to 82 °C; that for `Fc1ccc2c(c1)nc(C(F)(F)C(F)(F)F)n2C1CCNCC1`, 177 to 178 °C.
The result for `CC(C)(C)CC(C)(C)c1ccc(OS(=O)(=O)c2ccc(C(C)(C)C)cc2)cc1` reads 68 to 71 °C; that for `N#Cc1cnc2cc3ccccc3cc2c1Nc1ccc(F)c(Cl)c1`, 257 to 259 °C; that for `COC(=O)Cc1coc2c(O)cccc12`, 58 to 59 °C.
Molecule `Cc1nc(N2CCN(Cc3ccc(F)cc3)C2=O)sc1C#N` came in with a melting point of 136 to 139 °C.
The result for `CC(C#N)(CNC(=O)c1n[nH]cc1NC(=O)c1ccccn1)Cc1ccccc1` (configuration not stated) reads 196 to 197 °C; that for `COc1cc2c(Nc3ccc(Oc4ccccc4)cc3)c(C#N)cnc2cc1OCCN1CCC(N2CCCCC2)CC1`, 141 °C.
As to `Cc1cc(C)nc(Sc2ccnc3cc(Cl)cc(Cl)c23)n1`, the melting point is 182 to 183 °C.
Under `CCOC(=O)NN=Cc1c[nH]c(C(C)(C)C)n1` stands 194 to 197 °C; under `CC(=O)Nc1cc(Cl)c(Br)c(Cl)c1`, 224 °C; under `CCn1c(=O)c2[nH]c(/C=C/c3ccc(OC)c(C)c3OC)nc2n(CC)c1=O`, over 275 °C.
In turn, `N#CCCC1CN(C(=O)OCc2ccccc2)CCO1` (configuration not stated) yielded a melting point of 59 to 60 °C.
Under `CCOC(=O)c1cc(CC)sc1Nc1ccccc1N` stands 50 to 52 °C.
The result for `CC(C)(NCCc1ccccc1)C(O)c1ccccc1` (configuration not stated) reads 103 to 104 °C; that for `N=C(NO)c1ccc(-c2ccc(Br)o2)cc1`, 116 to 117 °C; that for `CC(C)n1cc(-c2ccc(Oc3ccccc3)c(CO)c2)c2c(Cl)ncnc21`, 157 to 159 °C.
Under `NS(=O)(=O)c1cccc(NC(=O)c2cnn3c(C(F)F)cc(-c4ccc(Cl)c(Cl)c4)nc23)c1` stands 306 °C; under `CNC(=O)C1CCCN1S(=O)(=O)c1ccc(N2CCC3(CC2)OCCO3)cc1` (configuration not stated), 137 to 139 °C.
`Fc1ccc(-c2nc3ccccn3c2-c2ccnc(-c3ccc(CN4CCOCC4)cc3)c2)cc1Cl` had a melting point of 189 °C.
The result for `COc1cc(CCCC2OC(=O)NC2=O)ccc1OCc1nc(-c2ccccc2)oc1C` (configuration not stated) reads 161 to 162 °C.
With `CCC(C)NC(=O)OC1c2ccccc2C(=O)N1c1ccc2ccc(Cl)nc2n1` (configuration not stated), the melting point lay in the range of 220 to 222 °C.
`Cc1ccc2noc(-c3ccccc3)c2c1` returned a melting point of 64 to 66 °C.
The result for `CCCc1c(OCCCCc2ccc3cc(OC)c(OC)cc3c2)ccc(C(=O)O)c1O` reads 147 to 148 °C.
The result for `CCCCOc1cc(C(=O)O)cc(S(N)(=O)=O)c1-c1ccccc1` reads 129 to 131 °C; that for `CN(C(=O)OC(C)(C)C)[C@@H]1CCc2c(c3cc(S(=O)(=O)c4ccccc4)ccc3n2C)C1`, 181 to 183 °C; that for `C(#Cc1ccc(C2=CC(c3ccc(C#Cc4ccccc4)cc3)N(c3ccccc3)N2)cc1)c1ccccc1` (configuration not stated), 200 to 204 °C.
In turn, `Cc1c(C(=O)Nc2ccc(N3CCNCC3)c(C#N)c2)cnn1-c1ccc(Cl)cc1` came in with a melting point of 184 °C.
Under `C=CCOc1cc(C(=O)O)cc(C(=O)N(C)C)c1` stands 93 to 95 °C; under `CCOC(=O)C(N=C(c1ccc(Cl)cc1)c1ccc(OC)cc1O)C(=O)OCC`, 73 to 75 °C.
Under `O=CC1c2ccccc2CCc2ccccc21` stands 76 to 77 °C.
The molecule `CC(O)C1CCC2C3CC=C4CC(O)CC(O)C4(C)C3CCC12C` (configuration not stated) gave a melting point of 235 to 237 °C.
Under `COc1ccc(Cl)cc1C(=O)NC(C)Cc1ccc(CCC(=O)O)cc1` (configuration not stated) stands 125 to 126 °C; under `O=S(=O)(Oc1ccc(F)cc1)c1ccc(Oc2ccc(F)cc2)cc1`, 78 to 83 °C; under `CCOc1nn(C(=O)NS(=O)(=O)c2c(C)cccc2OC(C)C)c(=O)n1C`, 155 °C.
On to `CC(C)(C)OC(=O)N1CCC(n2c(=O)n(CC(F)(F)F)c3cc(F)ccc32)CC1`, for which the melting point lay within 172 to 173 °C.
The result for `Oc1ccc2c(c1)CC(O)C2` (configuration not stated) reads 112 to 115 °C; that for `c1ccc(-c2cnc3cc4ccccc4cc3n2)cc1`, 163 °C.
The result for `N#Cc1ncn(-c2cccc(Cl)c2F)c1I` reads 182 to 183 °C.
The result for `CCOP(=O)(CCNC1CCN(S(=O)(=O)c2ccc(Nc3nccc(Nc4ccc(F)cc4)n3)cc2)CC1)OCC` reads 195 °C; that for `O=Cc1ccccc1Oc1ccc(C(F)(F)F)cc1[N+](=O)[O-]`, 79 to 81 °C; that for `CCN1C(=O)CCCc2cc(Nc3ncc(Cl)c(Nc4ccccc4S(=O)(=O)N(C)C)n3)c(OC)cc21`, 147 to 153 °C.
`O=S(=O)(c1ccccc1)n1cc(-c2ccnc(N[C@H]3CC[C@H](O)CC3)n2)c2ccccc21`: the melting point lay in the range of 132 to 133 °C.
The result for `O=S1(=O)N=C(c2cccc(Cl)c2)c2ccccc21` reads 149 to 150 °C; that for `O=C(O)C1CCc2c([nH]c3ccc(F)cc23)C1` (configuration not stated), over 200 °C; that for `Cc1ccc(C2(CNC(=O)Nc3c(C(C)C)cccc3C(C)C)CCC2)cc1`, 166 to 168 °C.
Under `CC(Oc1cccc(C=Cc2ccc3ccc(Cl)cc3n2)c1)C(N)=O` (single isomer, unassigned; (-)) stands 195 to 197 °C; under `CCOC(=O)C1=C(COCCO)NC(C)=C(C(=O)OC)C1c1cccc(Cl)c1Cl` (configuration not stated), 120 to 121 °C; under `COc1cc(C2=C(C(C)(C)C)C(C)(C)CO2)cc(OC)c1Br`, 139 to 140 °C.
Under `CC(=O)N[C@@H](CO)C(=O)NCCO[N+](=O)[O-]` stands 91 to 93 °C; under `COCOc1cc(NC(=O)OC(C)(C)C)cc2ccccc12`, 64 to 66 °C; under `Cc1nc2c(N)nc3ccccc3c2n1CCCOCCCc1ccccc1`, 145 to 146 °C.
`FC(F)(F)c1cccc(C(Cl)(Cl)Cl)c1Cl` showed a melting point of 32 to 33 °C.
Under `Cc1nnc(-c2ccc3occ(-c4ccc5c(c4)C(C)(C)CS5)c3c2)o1` stands 159 to 160 °C; under `OC(c1cc2ccccc2s1)C1CCN(CCc2ccccc2)CC1` (configuration not stated), 178 °C.
The result for `CCN(C(=O)COc1nc(-c2ccc(N)cc2)nc(C)c1C)c1ccccc1` reads 183 to 185 °C; that for `O=C1Nc2cccnc2N(C(=O)N2CCCCC2CCCCN2CCCCC2)c2ccccc21` (configuration not stated), 199 to 201 °C.
The result for `O=C1CC(OC(CBr)CBr)N1` (configuration not stated) reads 80 to 80.5 °C; that for `Cc1nn(CC(F)(F)F)c(C(=O)O)c1[N+](=O)[O-]`, 135 to 138 °C.
In turn, `N#Cc1cc(C(=O)CC(O)(c2cc(Cl)cc(Cl)c2)C(F)(F)F)ccc1F` (configuration not stated) came in with a melting point of 146 to 147 °C.
Under `CS(=O)(=O)c1ccc(/C(=C\C2CCCC2)C(=O)O)cc1` stands 200 to 202 °C.
As for `Cc1cc([C@@H](O)[C@@H](C)N2CCC(O)(c3ccc(F)cc3)CC2)ccc1O[Si](C(C)C)(C(C)C)C(C)C` (relative stereo), the melting point is 188 to 189 °C.
The result for `Cc1nnc(-c2ccc3occ(-c4ccccc4F)c3c2)o1` reads 112 to 113 °C.
Under `Nc1nccc(Oc2ccc3c(C(=O)Nc4cccc(C(F)(F)F)c4)cnn3c2)n1` stands 102 to 104 °C.
The result for `COc1cc2nc(C)c(CO)nc2cc1OC` reads 176 to 177 °C; that for `Cc1ccc(-c2ccccc2-c2n[nH]c(C(c3ccccc3)(c3ccccc3)c3ccccc3)n2)cc1`, 120 to 122 °C.
As for `C=CS(=O)(=O)N1CCC(N2N=C(c3ccc(OC)c(OC)c3)[C@H]3CC=CC[C@H]3C2=O)CC1`, the melting point fell in the range of 89 to 90 °C.
Under `Nc1nc(Cc2ccc(OCc3ccccc3)cc2)nc2nc(-c3ccco3)nn12` stands 220 to 222 °C.
Under `Cc1nc2c(OCc3ccccc3)cc(Br)cc2n1C` stands 177 to 179 °C; under `O=C(c1ccn2c1CSC2c1cccnc1)c1c[nH]c2cc(-c3ccc(F)cc3)ccc12` (configuration not stated), 248 to 252 °C.
The result for `OCc1ccc2c(c1)COC2c1ccc(F)cc1` (configuration not stated) reads 101 to 104 °C.
